{"source": "patent US7625883B1", "about": "“Glycerophosphoinositol derivatives as modulators of cytosolic A2 phospholipase” (I.R.B. Istituto di Ricerche Biotechnologiche S.R.L., priority 2000, dated 2009)", "key": {"[1]": {"system": "Swiss 3T3 fibroblasts", "test": "mastoparan-dependent release of [3H]-arachidonic acid in Swiss 3T3 fibroblasts", "assay_type": "cell-based", "method": "(§1) cPLA2-dependent mechanism, for example ATP, mastoparan, bombesin;\n(§2) The cells are initially incubated with various concentrations of the compound under examination for 60 minutes or with a predefined concentration of 100 μM for various time intervals (15-180 minutes), washed two times with HBSS (Hank's Balanced Salt Solution, in the presence of Ca2+ and Mg2+ ions) added with 10 mM Hepes and 0.2% BSA—in absence of free fatty acids, pH 7.4 and stimulated with 100 μM ATP in the described buffer for 10 minutes at 37° C. The supernatant was collected in scintillation cuvettes for determination. The results are expressed as a percentage of the total release of [3H]-arachidonic acid.\nPreloaded radioactively labeled cells were pre-incubated with various concentrations of the Example 4a for 60 minutes and then stimulated with 100 μM mastoparan for 10 minutes. The results are expressed as the mean±SE of two points in 3 separate experiments."}, "[2]": {"test": "solubility in water", "assay_type": "physicochemical"}, "[3]": {"test": "solubility in organic solvents", "assay_type": "physicochemical"}, "[4]": {"system": "cPLA2", "test": "release of arachidonic acid induced by the activation of cPLA2 in various cellular systems (overall statement)", "assay_type": "cell-based", "details": "all the cellular systems tested", "method": "Evaluation of the effects of the L-α-glycero-phospho-D-mio-inositol autacoid coded example 4a on the release of arachidonic acid induced by cPLA2 in various cellular systems.\nThe cultures are stimulated to release arachidonic acid using various stimuli:\nas §1, §2"}, "[5]": {"system": "Balb/c mice", "test": "plasma extravasation in the ear pinna of the mouse induced by substance P", "details": "compound 5 mg/kg endovenous"}, "[6]": {"system": "Swiss 3T3 fibroblasts", "test": "release of [3H]-arachidonic acid from Swiss 3T3 fibroblasts stimulated with ATP", "assay_type": "cell-based", "method": "as §1, §2\n(§3) Preloaded cells were pre-incubated with various concentrations of the Example 4a for 60 minutes and then stimulated with 100 μM ATP for 10 minutes. The results are expressed as the mean±SE of two points in 3 separate experiments."}, "[7]": {"system": "Balb/c mice", "test": "plasma extravasation in the ear pinna of the mouse induced by peptide P6-11 of substance P", "assay_type": "in vivo", "details": "P 6-11"}, "[8]": {"system": "FRTL5 cells", "test": "release of [3H]-arachidonic acid from FRTL5 cells stimulated with ATP", "assay_type": "cell-based, rat", "details": "ATP 100 μM 10 minutes", "method": "FRTL5, cell line of epithelial cells from rat thyroid grown in culture. Briefly, the cells were cultured in Coon's F12 medium modified according to Ham and supplemented with 5% bovine serum, 20 mM glutamine and a mixture of six hormones. (6H-thyrotropin, insulin, transferring, cortisol, somatostatin, glicil-L-istidil-L-lysine acetate) at 37° C. in a humidified atmosphere in 5% CO2, 95% air medium changed every 3-4 days. […]\nas §2\nPreloaded cells are incubated with 100 μM of compound of the Example 4a for different time intervals and then stimulated with ATP (100 μM) for 10 minutes. The results are expressed as the mean±SE of two points in 3 separate experiments. The stimulation of control cells was generally 4-5 times the basal value in the corresponding intervals.\nas §3"}, "[9]": {"system": "Swiss 3T3 fibroblasts", "test": "bombesin-dependent release of [3H]-arachidonic acid in Swiss 3T3 fibroblasts", "assay_type": "cell-based", "details": "then bombesin 10 minutes", "method": "as §1, §2\nPreloaded cells were pre-incubated with various concentrations of the Example 4a for 60 minutes and then stimulated with bombesin for 10 minutes. The results are expressed as the mean±SE of two points in 3 separate experiments."}, "[10]": {"system": "FRTL5 cells", "test": "release of [3H]-arachidonic acid induced by ionomicin in FRTL5 cells (cPLA2-independent)", "assay_type": "cell-based, rat", "details": "for Release of [^3H]-arachidonic acid: then 10 μM ionomicin 30 minutes", "method": "FRTL5, cell line of epithelial cells from rat thyroid grown in culture. Briefly, the cells were cultured in Coon's F12 medium modified according to Ham and supplemented with 5% bovine serum, 20 mM glutamine and a mixture of six hormones. (6H-thyrotropin, insulin, transferring, cortisol, somatostatin, glicil-L-istidil-L-lysine acetate) at 37° C. in a humidified atmosphere in 5% CO2, 95% air medium changed every 3-4 days.\ncPLA2-independent mechanism, for example Ca2+ ionophore, ionomicin.\nas §2\nPreloaded cells were pre-incubated with various concentrations of the Example 4a for 60 minutes and then stimulated with 10 μM ionomicin for 30 minutes. The results are expressed as the mean±SE of two points in 3 separate experiments."}, "[11]": {"details": "compound 5 mg/kg endovenous 30 minutes before"}, "[12]": {"details": "compound 10 mg/Kg endovenous 30 minutes before"}}, "note": "Marks after values point to notes of the source that are not given here.", "data": [{"compound": "Mastoparan [reference compound]", "values": [{"measurement": "Release of [^3H]-arachidonic acid % basal", "setting": "[1]; stimulus alone: 100 μM mastoparan 10 minutes, no test compound", "value": "150 ± 12", "unit": "% basal"}]}, {"compound": "CCCC[N+](CCCC)(CCCC)CCCC.O=P([O-])(OCC(O)CO)OC1C(O)C(O)C(O)C(O)C1O", "note": "[Example 8, L-α-glycero-phospho-D-mio-inositol tetrabutylammonium salt]", "values": [{"measurement": "solubility in water", "setting": "[2]", "value": ">10", "unit": "mg/mL"}, {"measurement": "solubility in organic solvents", "setting": "[3]; in DMF", "value": "≧10 mg/ml in DMF"}, {"measurement": "solubility in organic solvents", "setting": "[3]; in words", "value": "slightly soluble in organic solvents,"}]}, {"compound": "O=P([O-])(OCC(O)CO)OC1C(O)C(O)C(O)C(O)C1O.[Na+]", "note": "[Example 4, L-α-glycerol-phospho-D-mio-inositol sodium salt]", "values": [{"measurement": "effect on release of arachidonic acid induced by the activation of the cPLA2 (in words)", "setting": "[4]", "value": "more potent effect"}]}, {"compound": "C[N+](C)(C)CCO.O=P([O-])(OCC(O)CO)OC1C(O)C(O)C(O)C(O)C1O", "note": "[Example 5, L-α-glycero-phospho-D-mio-inositol choline salt]", "values": [{"measurement": "Absorbance (Evan's Blue, 620 nm)", "setting": "[5]", "value": "0.222 ± 0.010"}]}, {"compound": "Nc1ncnc2c1ncn2[C@@H]1O[C@H](COP(=O)(O)OP(=O)(O)OP(=O)(O)O)[C@@H](O)[C@H]1O", "note": "[ATP, reference compound]", "values": [{"measurement": "Release of [^3H]-arachidonic acid % basal", "setting": "[6]; stimulus alone: 100 μM ATP 10 minutes, no test compound", "value": "149 ± 11", "unit": "% basal"}]}, {"compound": "L-α-glycero-phospho-D-mio-inositol zinc salt [Example 3]", "values": [{"measurement": "effect on release of arachidonic acid induced by the activation of the cPLA2 (in words)", "setting": "[4]", "value": "more potent effect"}]}, {"compound": "L-α-glycero-phospho-D-mio-inositol calcium salt [Example 2]", "values": [{"measurement": "Absorbance (Evan's Blue, 620 nm)", "setting": "[7]; [11]", "value": "0.092 ± 0.021"}, {"measurement": "Absorbance (Evan's Blue, 620 nm)", "setting": "[7]; [12]", "value": "0.079 ± 0.022•"}]}, {"compound": "O=P([O-])(OCC(O)CO)OC1C(O)C(O)C(O)C(O)C1O.[K+]", "note": "[Example 4a, L-α-glycero-phospho-D-mio-inositol potassium salt]", "values": [{"measurement": "Release of [^3H]-arachidonic acid % inhibition", "setting": "[8]; 0.005 μM compound, 60 minutes preincubation", "value": "10 ± 2", "unit": "% inhibition"}, {"measurement": "Release of [^3H]-arachidonic acid % inhibition", "setting": "[8]; 0.01 μM compound, 60 minutes preincubation", "value": "35 ± 5", "unit": "% inhibition"}, {"measurement": "Release of [^3H]-arachidonic acid % inhibition", "setting": "[8]; 0.1 μM compound, 60 minutes preincubation", "value": "41 ± 2", "unit": "% inhibition"}, {"measurement": "Release of [^3H]-arachidonic acid % inhibition", "setting": "[8]; 1.0 μM compound, 60 minutes preincubation", "value": "52 ± 3", "unit": "% inhibition"}, {"measurement": "Release of [^3H]-arachidonic acid % inhibition", "setting": "[8]; 10 μM compound, 60 minutes preincubation", "value": "60 ± 8", "unit": "% inhibition"}, {"measurement": "Release of [^3H]-arachidonic acid % inhibition", "setting": "[8]; 50 μM compound, 60 minutes preincubation", "value": "70 ± 4", "unit": "% inhibition"}, {"measurement": "Release of [^3H]-arachidonic acid % inhibition", "setting": "[8]; 100 μM compound, 15 minutes of preincubation", "value": "30 ± 4", "unit": "% inhibition"}, {"measurement": "Release of [^3H]-arachidonic acid % inhibition", "setting": "[8]; 100 μM compound, 30 minutes of preincubation", "value": "42 ± 5", "unit": "% inhibition"}, {"measurement": "Release of [^3H]-arachidonic acid % inhibition", "setting": "[8]; 100 μM compound, 60 minutes of preincubation", "value": "70 ± 4", "unit": "% inhibition"}, {"measurement": "Release of [^3H]-arachidonic acid % inhibition", "setting": "[8]; 100 μM compound, 60 minutes preincubation", "value": "92 ± 2", "unit": "% inhibition"}, {"measurement": "Release of [^3H]-arachidonic acid % inhibition", "setting": "[8]; 100 μM compound, 90 minutes of preincubation", "value": "72 ± 5", "unit": "% inhibition"}, {"measurement": "Release of [^3H]-arachidonic acid % inhibition", "setting": "[8]; 100 μM compound, 120 minutes of preincubation", "value": "71 ± 6", "unit": "% inhibition"}, {"measurement": "Release of [^3H]-arachidonic acid % inhibition", "setting": "[8]; 100 μM compound, 180 minutes of preincubation", "value": "92 ± 9", "unit": "% inhibition"}, {"measurement": "Release of [^3H]-arachidonic acid % basal", "setting": "[6]; 50 μM compound 60 minutes, then 100 μM ATP 10 minutes", "value": "80 ± 9", "unit": "% basal"}, {"measurement": "Release of [^3H]-arachidonic acid % basal", "setting": "[6]; 100 μM compound 60 minutes, then 100 μM ATP 10 minutes", "value": "70 ± 4", "unit": "% basal"}, {"measurement": "Release of [^3H]-arachidonic acid % basal", "setting": "[1]; 50 μM compound 60 minutes, then 100 μM mastoparan 10 minutes", "value": "90 ± 3", "unit": "% basal"}, {"measurement": "Release of [^3H]-arachidonic acid % basal", "setting": "[1]; 100 μM compound 60 minutes, then 100 μM mastoparan 10 minutes", "value": "80 ± 4", "unit": "% basal"}, {"measurement": "Release of [^3H]-arachidonic acid % basal", "setting": "[9]; 50 μM compound 60 minutes", "value": "120 ± 3", "unit": "% basal"}, {"measurement": "Release of [^3H]-arachidonic acid % basal", "setting": "[9]; 100 μM compound 60 minutes", "value": "90 ± 4", "unit": "% basal"}, {"measurement": "Release of [^3H]-arachidonic acid", "setting": "[10]; 50 μM compound 60 minutes", "value": "720 ± 30"}, {"measurement": "Release of [^3H]-arachidonic acid", "setting": "[10]; 100 μM compound 60 minutes", "value": "450 ± 14"}, {"measurement": "effect on release of arachidonic acid induced by stimuli not related to cPLA2 (in words)", "setting": "[10]; calcium ionophore", "value": "does not induce reduction of the release of arachidonic acid"}, {"measurement": "Absorbance x10^−2", "setting": "[7]; compound 0.5 mg/kg endovenous (Table 8)", "value": "54 ± 4* x10^−2"}, {"measurement": "Absorbance x10^−2", "setting": "[7]; compound 1.5 mg/Kg endovenous (Table 8)", "value": "57 ± 7* x10^−2"}, {"measurement": "Absorbance x10^−2", "setting": "[7]; compound 5 mg/Kg endovenous (Table 8)", "value": "34 ± 8* x10^−2"}, {"measurement": "Absorbance (Evan's Blue, 620 nm)", "setting": "[7]; [11]", "value": "0.081 ± 0.027"}, {"measurement": "effect on release of arachidonic acid induced by the activation of the cPLA2 (in words)", "setting": "[4]", "value": "reduce in a time and concentration dependent manner the release of arachidonic acid"}]}, {"compound": "NCCCC[C@H](N)C(=O)O.O=P(O)(OCC(O)CO)OC1C(O)C(O)C(O)C(O)C1O", "note": "[Example 6, L-α-glycero-phospho-D-mio-inositol lysine salt]", "values": [{"measurement": "Absorbance (Evan's Blue, 620 nm)", "setting": "[7]; [11]", "value": "0.131 ± 0.022"}, {"measurement": "Absorbance (Evan's Blue, 620 nm)", "setting": "[7]; [12]", "value": "0.072 ± 0.010•"}, {"measurement": "Absorbance (Evan's Blue, 620 nm)", "setting": "[5]", "value": "0.239 ± 0.015"}]}]}
